Among the data in patent US7576071B2, “Antithrombotic compound” (sanofi-aventis, priority 2004, dated 2009) are IC50 values, retold here.

Each structure is given as a SMILES string. Where two headings read alike, the source gives them in different places.

In experiment [1] the test system is human platelets (platelet rich plasma), ADP-induced aggregation. Description: In vitro test for inhibition of human platelet aggregation induced by ADP. It counts as cell-based. The conditions noted are these: Platelet. The text has this: I.a. In vitro Test for Inhibition of Human Platelet Aggregation Induced by ADP
Addition of adenosine diphosphate (ADP) to human platelet rich plasma (PRP) in vitro induces platelet aggregation. This aggregation can be assessed by measuring the optical density (OD) of the PRP. The in vitro test described here was used to determine the inhibitory activity of a test compound on the ADP-induced aggregation of human platelets. A micro plate reader is used to measure the activity of several compounds simultaneously.
(§1) An alternative vehicle is 0.9% NaCl in MQ H2O. The compound solution (either in MQ H2O or 0.9% NaCl in MQ H2O) is further diluted in 0.9% NaCl in MQ H2O.
Free-flowing blood (at least 100 mL) is taken from a healthy volunteer and collected in 0.1 volume 3.8% sodium citrate. 2H2O in distilled H2O (w/v). The final concentration is 0.38% sodium citrate.
The citrated blood is centrifuged at 1,600 N/kg (160 g) at RT. After 15 min, centrifugation is discontinued with the brake turned off and the supernatant (=PRP) is collected. • 2. ADP (Kordia/Chrono-par # 384). Before use, a solution of 50 μM in 0.9% NaCl is prepared. Equipment • 1. Sysmex blood cell counter model KX-21. • 2. Labsystems iEMS reader MF with a 620 nm filter, an orbital shaker set at 1,000 rpm and a constant temperature of 37° C. Absorption is measured with the Labsystems iEMS program. • 3. Blood collection system 600 mL with needle, art P4203 (NPBI). • 4. 96 wells flat bottom micro plates (Greiner Labortechnik). Procedure
The platelets in the supernatant (PRP) are counted using a Sysmex blood cell counter and the supernatant is diluted with PPP to obtain a PRP containing 400,000±50,000 plt/μL. PRP should stabilize at RT for at least 20 min but not longer than 3 h.
150 μL PRP is pipetted into a well of the micro plate. 30 μL test compound in a range of concentrations (7 concentrations per compound) or vehicle is added and the micro plate is placed in the Labsystems iEMS reader MF at 37° C. The optical density (OD620) is then measured at 620 nm. After shaking for 2 min in the reader (1,000 rpm), the OD is measured for the second time. This is to verify the stability of the platelets (absence of spontaneous platelet aggregation). Then, 20 μL of 50 μM ADP solution is added and the OD is kinetically measured every min for 14 min at 620 nm (FIG. 1). Between two measurements, the plate is shaking for 40 seconds at 1,000 rpm. Each test compound is investigated in at least 2 experiments using PRP from different volunteers.
The mean OD at each compound concentration (including vehicle) is calculated at t=0 min and t=10 min. The percentage inhibition at each concentration is calculated using the formula: […]
The IC50 of the test compound is the concentration of the test compound at which the ADP-induced platelet aggregation is reduced by 50%. For this, the percentage inhibition values are plotted against compound concentration. Then, IC50, nH (Hill slope) and efficacy of the test compound is calculated using Graphpad Prism 3.0 (with variable slope).
Reference: Salmon, D. M. (1996) Thrombosis Research 84, 213-216.

Experiment [2] has as its system washed human platelets, TRAP-induced aggregation. In words: In vitro test for inhibition of human platelet aggregation induced by TRAP. It counts as cell-based. The conditions noted are these: Platelet.
Text: I.b. In vitro Test for Inhibition of Human Platelet Aggregation Induced by TRAP
Introduction: Addition of trombin receptor agonist peptide (TRAP) to washed human platelets (WPL) in vitro induces platelet aggregation. This aggregation can be determined by measuring the optical density of the WPL. The in vitro test described here is used to analyze the activity of a test compound to inhibit TRAP-induced aggregation of human platelets. A micro plate reader is used to measure the activity of several compounds simultaneously.
as §1
Free-flowing blood (at least 100 mL) is taken from a healthy volunteer and collected in 0.1 volume 3.8% sodium citrate. 2H2O in MQ H2O (w/v). The final concentration is 0.38% sodium citrate. The citrated blood is centrifuged at 1,600 N/kg (160 g) in Hettich Rotanta/AP centrifuge (750 rpm) at RT. After 15 min, centrifugation is discontinued with the brake turned off and the supernatant (=PRP) is collected. • 2. Washed platelets (WPL):
After adding freshly made 1 μL PGI2 solution per ml PRP, the suspension is centrifuged at 13,500 N/kg (1,350 g) for 10 min in a Hettich Rotanta/AP centrifuge (i.e., 2,800 rpm) at RT. After gentle resuspension of the pellet in the same volume of fresh Watson buffer containing 5 ng/mL PGI2, the suspension is centrifuged at 1,350 g (2,800 rpm) for 10 min at RT again. The final platelet pellet is resuspended in Watson buffer to give approx. 400,000±50,000 platelets/[…]. • 3. Watson buffer:
134 mM NaCl, 2.9 mM KCl, 12 mM NaHCO3, 0.34 mM Na2HPO4.2H2O, 1 mM MgCl2.6H2O, 5 mM Glucose and 5 mM HEPES in MQ H2O. The pH is adjusted to 7.4 with 1 M NaOH. • 4. Prostaglandin I2 (Sigma, P6188 powder):
The PGI2 stock solution of 1 mg/mL in 1 M KOH is stored in aliquots of 100 μL at −20° C. Immediately before use, a solution of 5 μg/mL in ice-cold 0.9% NaCl in MQ H2O is prepared. • 5. Human Fibrinogen (Kordia/ERL, art nr: FIB 2 powder):
0.5 g fibrinogen powder is dissolved in 50 mL MQ H2O under vacuum. This stock solution is stored in aliquots of 1 mL at −20° C. Before use, a solution of 0.5 mg/mL in saline is prepared.
Before use, a solution of 50 μM TRAP in 0.9% NaCl in MQ H2O is prepared. For each test, a fresh solution is made.
• 1. Sysmex cell counter model KX-21 • 2. Labsystems iEMS reader MF with a 405 nm filter, an orbital shaker set at 1,000 rpm and a constant temperature of 37° C. Absorptions are measured with the Labsystems iEMS program. • 3. Blood collection system 600 mL with needle, art nr P4203 (NPBI) • 4. 96 wells micro plates (Greiner Labortechnik) flat-bottom
Procedure: The WPL concentration is counted in a Sysmex blood cell counter and the suspension is diluted with Watson buffer to obtain a concentration of 400,000±50,000 plt/μL. Before use, WPL is allowed to stabilize at room temperature for at least 20 min but not longer than 3-4 hours.
TRAP-induced aggregation: 150 μL WPL is pipetted into a well of a micro plate. 15 μL test compound or vehicle and 15 μL fibrinogen solution is added and the micro plate is placed in the micro plate reader at 37° C. Then, the optical density (OD) is measured at 405 nm and after shaking for 2 min in the reader, the OD405 is measured again to verify the stability of the platelets (absence of spontaneous platelet aggregation). 20 μL of 50 μM TRAP is added and the OD405 is kinetically measured every min for 14 min at 405 nm. Between two measurements, the plate is shaking for 40 seconds at 1,000 rpm (FIG. 1). For determination of the IC50 of a test compound, each test compound is investigated in at least 2 experiments using WPL from different volunteers.
Evaluation of response: The mean OD of each concentration (including vehicle) is calculated at t=0 min and t=10 min. The percentage inhibition at each concentration is calculated using the formula: […]

The mark [3] stands for this setting: 5 μM ADP, human PRP, mean of n experiments, entries marked b measured with a Chronolog aggregometer, others with micro plate reader, read-out: Inhibition of ADP-induced (5 μM) human platelet aggregation (IC50), mean.
[4] abbreviates: 5 μM TRAP, washed human platelets, mean of n experiments, entries marked b measured with a Chronolog aggregometer, others with micro plate reader, read-out: Inhibition of TRAP (5 μM)-induced human platelet aggregation (IC50), mean.

By IC50 is commonly meant the concentration that inhibits the measured activity by half. As for `O=C(O)CCNC(=O)[C@@H]1CCCN(C(=O)CCC2CCNCC2)C1` [XX, reference compound], the IC50 in experiment [1] (setting [3]) turned out to be 0.31 µM; in experiment [2] (setting [4]) it was 0.38 µM.
The corresponding values for `CC(C)(C)OC(=O)COCCOCCOCCOCCNC(=O)[C@H](CC(=O)O)NC(=O)CCC(=O)Nc1ccc(C(=N)N)cc1` [III, tert-Butyl N-{(4-benzamidino)-succinamyl}-L-aspartyl-15-aza-3,6,9,12-tetraoxa-pentadecanoate] are 0.38 µM and 0.25 µM.
Consider `CC(C)(C)OC(=O)COCCOCCOCCOCCNC(=O)[C@H](Cc1ccccc1)NC(=O)[C@H](CC(=O)O)NC(=O)CCNC(=O)c1ccc(C(=N)N)cc1` [Compound I, tert-Butyl({N-(4-amidinobenzoyl)-β-alanyl}-L-aspartyl-L-phenylalanyl)-15-aza-3,6,9,12-tetraoxa-pentadecanoate], for which the IC50 was determined as 0.61 µM in experiment [1] (setting [3]) and 0.22 µM in experiment [2] (setting [4]).
On to `CCCCS(=O)(=O)N[C@@H](Cc1ccc(OCCCCC2CCNCC2)cc1)C(=O)O` [tirofiban, reference compound], for which the IC50 lay within 0.03 to 0.06 µM in experiment [1] (Homo sapiens, read-out: IC50, inhibition of human platelet aggregation induced by 5 μM ADP (reference compound)) and 0.03 to 0.06 µM in experiment [2] (Homo sapiens, read-out: IC50, inhibition of human platelet aggregation induced by 5 μM TRAP (reference compound)).
As to `CC(C)(C)OC(=O)COCCOCCOCCOCCNC(=O)[C@H](CC(=O)O)NC(=O)[C@@H]1CCCN(C(=O)CCC2CCNCC2)C1` [Compound VII, tert-Butyl N-{[N-3-(4-piperidinepropionyl)-(R)-(−)-nipecotyl]-L-aspartyl}-15-aza-3,6,9,12-tetraoxa-pentadecanoate], the figures for the IC50 in experiment [1] (setting [3]) and in experiment [2] (setting [4]) were 0.38 µM and 0.27 µM, respectively.
With `CC(C)(C)OC(=O)COCCOCCOCCOCCNC(=O)[C@H](Cc1ccccc1)NC(=O)[C@H](CC(=O)O)NC(=O)[C@@H]1CCCN(C(=O)CCC2CCNCC2)C1` [IX, tert-Butyl N-{[N-3-(4-piperidinepropionyl)-(R)-(−)-nipecotyl]-L-aspartyl-L-phenylalanyl}-15-aza-3,6,9,12-tetraoxa-pentadecanoate], the IC50 in experiment [1] (setting [3]) amounted to 1.18 µM.
Take `CC(C)(C)OC(=O)COCCOCCOCCOCCNC(=O)[C@H](Cc1ccccc1)NC(=O)[C@H](CC(=O)O)NC(=O)CCC(=O)Nc1ccc(C(=N)N)cc1` [Compound IV, tert-Butyl N-{(4-benzamidino)-succinamyl}-L-aspartyl-L-phenylalanyl-15-aza-3,6,9,12-tetraoxa-pentadecanoate]: the IC50 was determined as 0.35 µM in experiment [1] (setting [3]) and 0.12 µM in experiment [2] (setting [4]).
The corresponding values for `O=C(O)C[C@H](NC(=O)[C@@H]1CCCN(C(=O)CCC2CCNCC2)C1)C(=O)O` [Compound VI, {N-3-[4-piperidinepropionyl]-(R)-(−)-nipecotyl}-L-aspartate] are 22.6 µM and 6.29 µM.
The corresponding values for `N=C(N)c1ccc(NC(=O)CCC(=O)N[C@@H](CC(=O)O)C(=O)O)cc1` [XVIII, reference compound] are 2.01 µM and 1.19 µM.
